Test results published in ChEMBL document CHEMBL3885881, “DrugMatrix”.

Species on record: Rattus norvegicus
Experiment: DrugMatrix - Regimen: Daily Repeat
Type: toxicity, organism-based, Sprague-Dawley
Design: regimen Daily Repeat, gender Male, age 6-8 weeks
Conditions: in vivo, po, route oral GAVAGE, vehicle 100 % WATER; for ABSOLUTE BASOPHIL / ABSOLUTE EOSINOPHIL / ABSOLUTE MONOCYTE / ABSOLUTE SEGMENTED NEUTROPHIL / BASOPHIL / EOSINOPHIL / ERYTHROCYTE COUNT / HEMATOCRIT / LEUKOCYTE COUNT / LYMPHOCYTE / MEAN CORPUSCULAR HEMOGLOBIN / MEAN CORPUSCULAR HEMOGLOBIN CONCENTRATION / MEAN CORPUSCULAR VOLUME / MONOCYTE / NEUTROPHIL / NUCLEATED RED BLOOD CELLS / PLATELET COUNT / ABSOLUTE LYMPHOCYTE / HEMOGLOBIN: tissue Blood
[1] = 0 mg/kg, 72 h, dose level Control, time 3 day
[2] = 0 mg/kg, 72 h, tissue Plasma, dose level Control, time 3 day
[3] = 0 mg/kg, 120 h, dose level Control, time 5 day
[4] = 0 mg/kg, 120 h, tissue Plasma, dose level Control, time 5 day
[5] = 1 mg/kg, 72 h, dose level Low, time 3 day
[6] = 1 mg/kg, 72 h, tissue Plasma, dose level Low, time 3 day
[7] = 1 mg/kg, 120 h, dose level Low, time 5 day
[8] = 1 mg/kg, 120 h, tissue Plasma, dose level Low, time 5 day
[9] = 10 mg/kg, 72 h, dose level High, time 3 day
[10] = 10 mg/kg, 72 h, tissue Plasma, dose level High, time 3 day
[11] = 10 mg/kg, 120 h, dose level High, time 5 day
[12] = 10 mg/kg, 120 h, tissue Plasma, dose level High, time 5 day

THIMEROSAL
ABSOLUTE BASOPHIL [1]: 0 CELLS/uL
ABSOLUTE EOSINOPHIL [1]: 123.17 CELLS/uL
ABSOLUTE MONOCYTE [1]: 66.17 CELLS/uL
ABSOLUTE SEGMENTED NEUTROPHIL [1]: 1149.5 CELLS/uL
BASOPHIL [1]: 0%
EOSINOPHIL [1]: 0.83%
ERYTHROCYTE COUNT [1]: 5.26 x10E6/uL
HEMATOCRIT [1]: 33.07%
LEUKOCYTE COUNT [1]: 14.02 x10E3/uL
LYMPHOCYTE [1]: 90.17%
MEAN CORPUSCULAR HEMOGLOBIN [1]: 25.62 pg
MEAN CORPUSCULAR HEMOGLOBIN CONCENTRATION [1]: 40.65 G/DL
MEAN CORPUSCULAR VOLUME [1]: 63 fL
MONOCYTE [1]: 0.5%
NEUTROPHIL [1]: 8.5%
NUCLEATED RED BLOOD CELLS [1]: 0.17 /100WBC
PLATELET COUNT [1]: 1142.83 x10E3/uL
ALANINE AMINOTRANSFERASE [2]: 45.17 u/L
ALKALINE PHOSPHATASE [2]: 340.17 u/L
ASPARTATE AMINOTRANSFERASE [2]: 77.33 u/L
BLOOD UREA NITROGEN [2]: 14.67 mg/dL
CREATINE PHOSPHOKINASE [2]: 263.67 u/L
CREATININE [2]: 0.15 mg/dL
LACTATE DEHYDROGENASE [2]: 230 u/L
PHOSPHORUS [2]: 11.8 mg/dL
POTASSIUM [2]: 5.91 MEQ/L
TOTAL BILIRUBIN [2]: 0.22 mg/dL
TOTAL PROTEIN [2]: 5.7 G/DL
URIC ACID [2]: 1.35 mg/dL
ABSOLUTE BASOPHIL [3]: 0 CELLS/uL
ABSOLUTE EOSINOPHIL [3]: 125 CELLS/uL
ABSOLUTE LYMPHOCYTE [3]: 13809 CELLS/uL
ABSOLUTE MONOCYTE [3]: 351 CELLS/uL
ABSOLUTE SEGMENTED NEUTROPHIL [3]: 1581.67 CELLS/uL
BASOPHIL [3]: 0%
EOSINOPHIL [3]: 0.67%
ERYTHROCYTE COUNT [3]: 5.53 x10E6/uL
HEMATOCRIT [3]: 34.83%
LEUKOCYTE COUNT [3]: 15.87 x10E3/uL
LYMPHOCYTE [3]: 87.5%
MEAN CORPUSCULAR HEMOGLOBIN [3]: 25.25 pg
MEAN CORPUSCULAR HEMOGLOBIN CONCENTRATION [3]: 40.08 G/DL
MEAN CORPUSCULAR VOLUME [3]: 63.05 fL
MONOCYTE [3]: 2.17%
NEUTROPHIL [3]: 9.67%
NUCLEATED RED BLOOD CELLS [3]: 0 /100WBC
PLATELET COUNT [3]: 1044 x10E3/uL
ALANINE AMINOTRANSFERASE [4]: 50.67 u/L
ALKALINE PHOSPHATASE [4]: 395 u/L
ASPARTATE AMINOTRANSFERASE [4]: 86 u/L
CARBON DIOXIDE [4]: 29.33 mmol/L
CHOLESTEROL [4]: 71.33 mg/dL
CREATINE PHOSPHOKINASE [4]: 323.17 u/L
CREATININE [4]: 0.18 mg/dL
LACTATE DEHYDROGENASE [4]: 389.5 u/L
LIPASE [4]: 9.83 u/L
PHOSPHORUS [4]: 11.35 mg/dL
POTASSIUM [4]: 6.39 MEQ/L
TOTAL BILIRUBIN [4]: 0.18 mg/dL
TOTAL PROTEIN [4]: 6.1 G/DL
URIC ACID [4]: 1.52 mg/dL
ABSOLUTE BASOPHIL [5]: 0 CELLS/uL
ABSOLUTE EOSINOPHIL [5]: 68 CELLS/uL
ABSOLUTE LYMPHOCYTE [5]: 13921 CELLS/uL
ABSOLUTE MONOCYTE [5]: 100.67 CELLS/uL
ABSOLUTE SEGMENTED NEUTROPHIL [5]: 710.33 CELLS/uL
BASOPHIL [5]: 0%
EOSINOPHIL [5]: 0.33%
ERYTHROCYTE COUNT [5]: 5.23 x10E6/uL
HEMATOCRIT [5]: 33.4%
HEMOGLOBIN [5]: 13.6 G/DL
LEUKOCYTE COUNT [5]: 14.8 x10E3/uL
LYMPHOCYTE [5]: 94.33%
MEAN CORPUSCULAR HEMOGLOBIN [5]: 26.03 pg
MEAN CORPUSCULAR HEMOGLOBIN CONCENTRATION [5]: 40.73 G/DL
MEAN CORPUSCULAR VOLUME [5]: 63.97 fL
MONOCYTE [5]: 0.67%
NEUTROPHIL [5]: 4.67%
NUCLEATED RED BLOOD CELLS [5]: 0 /100WBC
PLATELET COUNT [5]: 1138.67 x10E3/uL
ALANINE AMINOTRANSFERASE [6]: 49 u/L
ALKALINE PHOSPHATASE [6]: 344.33 u/L
ASPARTATE AMINOTRANSFERASE [6]: 77 u/L
BLOOD UREA NITROGEN [6]: 12.33 mg/dL
CHLORIDE [6]: 100 MEQ/L
CHOLESTEROL [6]: 82.33 mg/dL
CREATINE PHOSPHOKINASE [6]: 236.33 u/L
CREATININE [6]: 0.13 mg/dL
GLUCOSE [6]: 155 mg/dL
LACTATE DEHYDROGENASE [6]: 196.33 u/L
PHOSPHORUS [6]: 11.57 mg/dL
POTASSIUM [6]: 6.96 MEQ/L
TOTAL BILIRUBIN [6]: 0.2 mg/dL
TOTAL PROTEIN [6]: 5.73 G/DL
ABSOLUTE BASOPHIL [7]: 0 CELLS/uL
ABSOLUTE EOSINOPHIL [7]: 50.33 CELLS/uL
ABSOLUTE MONOCYTE [7]: 268.67 CELLS/uL
ABSOLUTE SEGMENTED NEUTROPHIL [7]: 1091 CELLS/uL
BASOPHIL [7]: 0%
EOSINOPHIL [7]: 0.33%
ERYTHROCYTE COUNT [7]: 5.58 x10E6/uL
HEMATOCRIT [7]: 35.07%
LEUKOCYTE COUNT [7]: 11.73 x10E3/uL
LYMPHOCYTE [7]: 88%
MEAN CORPUSCULAR HEMOGLOBIN [7]: 25.23 pg
MEAN CORPUSCULAR HEMOGLOBIN CONCENTRATION [7]: 40.13 G/DL
NUCLEATED RED BLOOD CELLS [7]: 0 /100WBC
PLATELET COUNT [7]: 1316.33 x10E3/uL
ALANINE AMINOTRANSFERASE [8]: 43.33 u/L
ALKALINE PHOSPHATASE [8]: 369 u/L
ASPARTATE AMINOTRANSFERASE [8]: 83.33 u/L
BLOOD UREA NITROGEN [8]: 15.67 mg/dL
CARBON DIOXIDE [8]: 30.33 mmol/L
CHOLESTEROL [8]: 67.33 mg/dL
CREATINE PHOSPHOKINASE [8]: 227.33 u/L
CREATININE [8]: 0.2 mg/dL
GLUCOSE [8]: 177.33 mg/dL
LACTATE DEHYDROGENASE [8]: 246 u/L
LIPASE [8]: 10 u/L
PHOSPHORUS [8]: 11.2 mg/dL
POTASSIUM [8]: 6.65 MEQ/L
TOTAL BILIRUBIN [8]: 0.27 mg/dL
TOTAL PROTEIN [8]: 5.93 G/DL
URIC ACID [8]: 1.4 mg/dL
ABSOLUTE BASOPHIL [9]: 0 CELLS/uL
ABSOLUTE EOSINOPHIL [9]: 0 CELLS/uL
ABSOLUTE MONOCYTE [9]: 196.33 CELLS/uL
ABSOLUTE SEGMENTED NEUTROPHIL [9]: 1492 CELLS/uL
BASOPHIL [9]: 0%
EOSINOPHIL [9]: 0%
ERYTHROCYTE COUNT [9]: 5.18 x10E6/uL
HEMATOCRIT [9]: 33.3%
HEMOGLOBIN [9]: 13.3 G/DL
LEUKOCYTE COUNT [9]: 14.17 x10E3/uL
LYMPHOCYTE [9]: 88.67%
MEAN CORPUSCULAR HEMOGLOBIN [9]: 25.73 pg
MEAN CORPUSCULAR HEMOGLOBIN CONCENTRATION [9]: 39.93 G/DL
NEUTROPHIL [9]: 10%
NUCLEATED RED BLOOD CELLS [9]: 0.33 /100WBC
PLATELET COUNT [9]: 1209 x10E3/uL
ALANINE AMINOTRANSFERASE [10]: 54.33 u/L
ALBUMIN [10]: 3.7 G/DL
ALKALINE PHOSPHATASE [10]: 440.67 u/L
ASPARTATE AMINOTRANSFERASE [10]: 82.67 u/L
BLOOD UREA NITROGEN [10]: 15 mg/dL
CARBON DIOXIDE [10]: 30 mmol/L
CHOLESTEROL [10]: 107.67 mg/dL
CREATINE PHOSPHOKINASE [10]: 183.33 u/L
CREATININE [10]: 0.16 mg/dL
LACTATE DEHYDROGENASE [10]: 137 u/L
PHOSPHORUS [10]: 11 mg/dL
POTASSIUM [10]: 6.64 MEQ/L
TOTAL BILIRUBIN [10]: 0.2 mg/dL
TOTAL PROTEIN [10]: 5.57 G/DL
ABSOLUTE BASOPHIL [11]: 0 CELLS/uL
ABSOLUTE EOSINOPHIL [11]: 0 CELLS/uL
ABSOLUTE LYMPHOCYTE [11]: 10043.33 CELLS/uL
ABSOLUTE MONOCYTE [11]: 291.67 CELLS/uL
ABSOLUTE SEGMENTED NEUTROPHIL [11]: 1665 CELLS/uL
BASOPHIL [11]: 0%
EOSINOPHIL [11]: 0%
ERYTHROCYTE COUNT [11]: 6.38 x10E6/uL
HEMATOCRIT [11]: 39.67%
HEMOGLOBIN [11]: 15.6 G/DL
LEUKOCYTE COUNT [11]: 12 x10E3/uL
LYMPHOCYTE [11]: 84.67%
MEAN CORPUSCULAR HEMOGLOBIN [11]: 24.57 pg
NEUTROPHIL [11]: 13%
NUCLEATED RED BLOOD CELLS [11]: 0 /100WBC
PLATELET COUNT [11]: 1253 x10E3/uL
ALANINE AMINOTRANSFERASE [12]: 56.33 u/L
ALKALINE PHOSPHATASE [12]: 463.67 u/L
ASPARTATE AMINOTRANSFERASE [12]: 83.67 u/L
BLOOD UREA NITROGEN [12]: 15.67 mg/dL
CHOLESTEROL [12]: 116.33 mg/dL
CREATINE PHOSPHOKINASE [12]: 208.33 u/L
CREATININE [12]: 0.22 mg/dL
GLUCOSE [12]: 156 mg/dL
LACTATE DEHYDROGENASE [12]: 176.33 u/L
PHOSPHORUS [12]: 10.43 mg/dL
POTASSIUM [12]: 6.38 MEQ/L
TOTAL BILIRUBIN [12]: 0.1 mg/dL
TOTAL PROTEIN [12]: 6 G/DL
URIC ACID [12]: 1.63 mg/dL
